Measured values taken from patent US8420852B2, “Phospholipase A2 inhibitors and their use in treating neurological injury and disease” (The Regents of the University of California, priority 2007, dated 2013).

Experiments:
Type in all cases: biochemical
GIIA PLA2 = molecular target: T1, GIIA PLA2 (Homo sapiens, UniProt P14555); assay: vesicle assay for GIIA PLA2
T1 sequence (P14555 21-144): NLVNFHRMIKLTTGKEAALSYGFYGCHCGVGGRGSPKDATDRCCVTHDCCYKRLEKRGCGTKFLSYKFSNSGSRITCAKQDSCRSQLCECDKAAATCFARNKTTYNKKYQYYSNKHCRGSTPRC
Excerpt: Vesicle assays have generally been employed for this enzyme, but they have limitations for in vitro comparison of inhibitor potency.

sPLA2 (GV) = molecular target: T2, sPLA2 (GV) (Homo sapiens, UniProt P39877); assay: sPLA2 inhibition assay; conditions: at 0.091 mol fraction
T2 sequence (P39877 21-138): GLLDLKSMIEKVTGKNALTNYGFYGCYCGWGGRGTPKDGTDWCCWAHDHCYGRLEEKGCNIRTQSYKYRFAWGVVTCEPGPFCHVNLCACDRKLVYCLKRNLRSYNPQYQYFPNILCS
Method: The compounds described herein were tested for inhibition of PLA2s in in vitro assay systems. The data, summarized in the Examples, are represented as XI(50) values unless otherwise noted. XI(50) is defined as the inhibitor concentration that produced 50% inhibition. XI(50) is used as opposed to the more common IC50 because GIVA and GVIA PLA2 are active at a two-dimensional lipid interface rather than in three-dimensional solution. (Deems, Anal. Biochem., 287:1-16, 2000). For the groups that received delayed treatment after symptoms occurred, mice were treated with daily intraperitoneal injections of AX059 starting from the first day of clinical symptoms, beginning on day 11; and AX115 starting from the first day of clinical peak (i.e., score 4), beginning of day 14. All inhibitors were administered for 2 weeks. The selectivity of the compounds for the different PLA2s is shown as the percentage inhibition in Table 1. The XI(50) is the mole fraction of the inhibitor in the total substrate interface required to inhibit the enzyme by 50%. PLA2 inhibitors. It has been previously reported that long chain 2-oxoamides based on gamma-amino acids are potent inhibitors of cPLA2 (GIVA). […] A 2-oxoamide based on a glycine methyl ester, AX115, inhibits sPLA2 (GV) as well as cPLA2 (GIVA) and iPLA2 (GVIA). […]

iPLA2 (GVIA) = molecular target: T3, iPLA2 (GVIA) (Homo sapiens, UniProt O60733); assay: standard iPLA2 (GVIA) activity assay, DPPC/Triton X-100 mixed micelles; conditions: at 0.091 mol fraction
T3 sequence (O60733 1-806): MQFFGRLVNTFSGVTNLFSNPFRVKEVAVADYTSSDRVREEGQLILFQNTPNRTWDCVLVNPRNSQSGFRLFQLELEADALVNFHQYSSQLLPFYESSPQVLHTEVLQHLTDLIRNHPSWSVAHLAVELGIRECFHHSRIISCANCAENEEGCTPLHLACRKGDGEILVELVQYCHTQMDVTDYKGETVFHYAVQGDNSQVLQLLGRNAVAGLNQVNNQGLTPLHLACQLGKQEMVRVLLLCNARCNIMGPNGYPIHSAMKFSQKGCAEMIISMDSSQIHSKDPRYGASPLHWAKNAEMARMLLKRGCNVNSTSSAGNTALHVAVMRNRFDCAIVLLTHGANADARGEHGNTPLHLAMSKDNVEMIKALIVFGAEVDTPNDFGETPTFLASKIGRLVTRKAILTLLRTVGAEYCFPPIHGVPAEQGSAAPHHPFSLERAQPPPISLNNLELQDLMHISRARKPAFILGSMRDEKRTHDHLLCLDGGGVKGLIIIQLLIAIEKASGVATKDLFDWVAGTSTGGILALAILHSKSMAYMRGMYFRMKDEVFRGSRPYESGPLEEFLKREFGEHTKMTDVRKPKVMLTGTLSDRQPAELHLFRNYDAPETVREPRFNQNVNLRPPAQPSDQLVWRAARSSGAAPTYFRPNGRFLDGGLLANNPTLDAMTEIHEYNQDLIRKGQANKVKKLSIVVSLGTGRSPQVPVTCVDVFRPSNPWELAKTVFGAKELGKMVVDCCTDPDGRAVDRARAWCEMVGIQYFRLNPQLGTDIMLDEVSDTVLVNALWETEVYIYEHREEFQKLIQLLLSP
Method: The compounds described herein were tested for inhibition of PLA2s in in vitro assay systems. The data, summarized in the Examples, are represented as XI(50) values unless otherwise noted. XI(50) is defined as the inhibitor concentration that produced 50% inhibition. XI(50) is used as opposed to the more common IC50 because GIVA and GVIA PLA2 are active at a two-dimensional lipid interface rather than in three-dimensional solution. (Deems, Anal. Biochem., 287:1-16, 2000).
For the groups that received delayed treatment after symptoms occurred, mice were treated with daily intraperitoneal injections of AX059 starting from the first day of clinical symptoms, beginning on day 11; and AX115 starting from the first day of clinical peak (i.e., score 4), beginning of day 14. All inhibitors were administered for 2 weeks. The selectivity of the compounds for the different PLA2s is shown as the percentage inhibition in Table 1. The XI(50) is the mole fraction of the inhibitor in the total substrate interface required to inhibit the enzyme by 50%.
Compound AX115 was tested for its ability to inhibit human cPLA2 (GIVA) in a cPLA2 (GIVA) specific assay that uses mixed micelles of the substrate 1-palmitoyl-2-arachidonyl phosphatidylcholine and the detergent Triton X-100 (97:3) containing phosphatidylinositol 4,5-bisphosphate (400 μM) as previously described. […]

Q: Which results are given for `CCCCCCCCCCCCCCC(=O)C(=O)NCC(=O)OC` [AX115]?
A: inhibition of GIIA compared with GV PLA2 (GIIA PLA2): comparable inhibition; Inhibition sPLA2 GIVA/GV* (sPLA2 (GV)): 52%; Inhibition iPLA2GIVA (iPLA2 (GVIA)): 45%
